# Where two headings read alike, the source gives them in different places.
# Key:
# [1] = Pharmacokinetic study in rats after oral administration of Naoxintong capsule (NXTC), plasma levels by HPLC-MS/MS; settings: for Detection in rat plasma after oral administration of NXTC: doses of 0.5 g kg^−1 and 1.5 g kg^−1, at the present LLOQ level; for Tmax / AUC(0-inf) / AUC(0-t) / Cmax / MRT inf / MRT last / half-life: male, Sprague-Dawley, rat, plasma, po
# Procedure: (§1) The LC-MS/MS analysis was carried out on an Agilent 1200 system (Agilent Corporation, USA) coupled with an API 3200 triple quadrupole mass spectrometer with a Turbo Ion Spray Ionization (ESI) source (Concord, Ontario, Canada). The Agilent 1200 system consisted of a vacuum degasser (G1322A), a binary pump (G1312A), and a Hip-ALS autosampler (G13678). Chromatographic separation was performed on an Eclipse plus C18 column (4.6 × 100 mm, 1.8 μm) with a security guard C18 column (2.1 mm × 12.5 mm, 5 μm) (Agilent, USA). The mobile phases consisted of acetonitrile (A) and formic acid aqueous solution (B). The linear gradient was 30% A-30% A (0–10 min); 30%–80% A (10–15 min); 80%–95% A (15–20 min); 95%-95% A (20–30 min). Reequilibration time after gradient elution was 5 min. The column temperature was maintained at 25°C and the flow rate was set at 0.300 mL min^−1. ESI-MS spectra were acquired in both negative and positive ion multiple reaction monitoring (MRM) mode. Data collection and peak calculations were performed by Analyst 1.4.2 software (AB MDS Sciex).
# (§2) The ISs solution (10 μL) and formic acid (10 μL) were added to plasma samples (100 μL). Acetonitrile (370 μL) was used to precipitate protein. The mixed solution was swirled for 1 min and then centrifuged at 14000 rpm for 10 min. The supernatant fluid was collected and then evaporated to dryness with a stream of N2 gas in a 40°C water bath. The residue was reconstituted in 100 μL methanol, swirled for 1 min. The sample was centrifuged at 14000 rpm for 10 min. 10 μL of the supernatant was injected into the LC-MS/MS system for analysis.
# (§3) Rats were fasted for 12 h with free access to water before the experiment. NXTC extracts were orally administrated to ten rats at single time dose (0.5 g kg^−1) and to ten rats at triple doses (1.5 g kg^−1). The blood samples were collected at 5, 10, 15, 30, 45, 60, 90, 120, 240, 480, 720, and 1440 min after oral administration. Blood samples (200 μL) were collected from the vein of the eye sockets into heparinized tubes after the rats were anesthetized with ethyl ether. The samples were immediately centrifuged at 7,000 rpm, 10°C for 10 min. Then the plasma samples obtained were stored at −20°C.
# (§4) Some pharmacokinetic parameters were calculated by DAS1.0 software (Drug and Statistics 1.0, Medical College of Wannan, China). An appropriate model was employed to calculate the following parameters: area under the plasma concentration versus time curve from zero to last sampling time (AUC0→24 h) and infinity (AUC0→∞) and mean retention time from zero to last sampling time (MRT0→24 h). […] All data were shown as average value ± standard deviation.
# [2] = in vivo
# Procedure: as §1, §2, §3, §4
# [3] = rat, in vivo, po; cited from earlier work
Molecule,Detection in rat plasma after oral administration of NXTC [1],AUC(0-inf) ([1]; 0.5 g/kg),AUC(0-t) ([1]; 0.5 g/kg),Cmax ([1]; 0.5 g/kg),MRT inf ([1]; 0.5 g/kg),MRT last ([1]; 0.5 g/kg),Tmax ([1]; 0.5 g/kg),half-life ([1]; 0.5 g/kg),AUC(0-inf) ([1]; 1.5 g/kg),AUC(0-t) ([1]; 1.5 g/kg),Cmax ([1]; 1.5 g/kg),MRT inf ([1]; 1.5 g/kg),MRT last ([1]; 1.5 g/kg),Tmax ([1]; 1.5 g/kg),half-life ([1]; 1.5 g/kg),further results
"N#C[C@H](O[C@@H]1O[C@H](CO[C@@H]2O[C@H](CO)[C@@H](O)[C@H](O)[C@H]2O)[C@@H](O)[C@H](O)[C@H]1O)c1ccccc1 [Amygdalin, amygdalin]",not detected,,,,,,,,,,,,,,,
"CC(C)(O)[C@@H]1CC[C@](C)([C@H]2[C@@H](O)C[C@@]3(C)[C@@H]4C[C@H](O[C@@H]5O[C@H](CO)[C@@H](O)[C@H](O)[C@H]5O)[C@H]5C(C)(C)[C@@H](O[C@@H]6OC[C@@H](O)[C@H](O)[C@H]6O)CC[C@@]56C[C@@]46CC[C@]23C)O1 [Astragaloside IV, astragaloside IV]",not detected,,,,,,,,,,,,,,,
"C[C@H]1COC2=C1C(=O)C(=O)c1c2ccc2c1CCCC2(C)C [Cryptotanshinone, cryptotanshinone]",could be detected,4.72 ± 5.99 ng·h/mL,1.49 ± 0.76 ng·h/mL,0.61 ± 0.23 ng/mL,20.7 ± 27.7 h,3.06 ± 1.47 h,0.51 ± 0.4 h,2.93 ± 3.89 h,55.2 ± 59.8 ng·h/mL,24.8 ± 27.9 ng·h/mL,2.78 ± 2.52 ng/mL,19 ± 17.5 h,7.37 ± 3.95 h,0.6 ± 0.2 h,17.8 ± 17.1 h,half-life ([1]; 1.5 g kg^−1): 17.8 ± 17.1 h
"COc1cc(/C=C/C(=O)O)ccc1O [Ferulic acid, ferulic acid]",,,,,,,,,,,,,,,,"Detection in rat plasma after oral administration of NXTC [2]: could be detected; Cmax ([2]; rat, po): 12.07 ± 4.61 ng/mL; Tmax ([2]; rat, po): less than 1 h; AUC(0–24 h) ([2]; rat, po, 0.5 g/kg): 3.20 ± 1.55 ng/mL∗h; AUC(0–∞) ([2]; rat, po, 0.5 g/kg): 4.19 ± 2.30 ng/mL∗h; C max ([2]; rat, po, 0.5 g/kg): 10.93 ± 4.67 ng/mL; MRT(0–24 h) ([2]; rat, po, 0.5 g/kg): 0.28 ± 0.10 h; MRT(0–∞) ([2]; rat, po, 0.5 g/kg): 0.48 ± 0.33 h; T 1/2 ([2]; rat, po, 0.5 g/kg): 0.20 ± 0.19 h; T max ([2]; rat, po, 0.5 g/kg): 0.17 ± 0.00 h; AUC(0–24 h) ([2]; rat, po, 1.5 g/kg): 8.33 ± 3.87 ng/mL∗h; AUC(0–∞) ([2]; rat, po, 1.5 g/kg): 14.4 ± 12.8 ng/mL∗h; C max ([2]; rat, po, 1.5 g/kg): 12.07 ± 4.61 ng/mL; MRT(0–24 h) ([2]; rat, po, 1.5 g/kg): 0.81 ± 0.38 h; MRT(0–∞) ([2]; rat, po, 1.5 g/kg): 3.80 ± 6.11 h; T 1/2 ([2]; rat, po, 1.5 g/kg): 0.42 ± 0.15 h; T max ([2]; rat, po, 1.5 g/kg): 0.19 ± 0.04 h; mean Tmax [3]: 1.8 min"
salvianolic acid B,not detected,,,,,,,,,,,,,,,

# Second part, led by results:
Detection in rat plasma after oral administration of NXTC [1],AUC(0-inf) ([1]; 0.5 g/kg),AUC(0-t) ([1]; 0.5 g/kg),Cmax ([1]; 0.5 g/kg),MRT inf ([1]; 0.5 g/kg),MRT last ([1]; 0.5 g/kg),Tmax ([1]; 0.5 g/kg),half-life ([1]; 0.5 g/kg),AUC(0-inf) ([1]; 1.5 g/kg),AUC(0-t) ([1]; 1.5 g/kg),Cmax ([1]; 1.5 g/kg),MRT inf ([1]; 1.5 g/kg),MRT last ([1]; 1.5 g/kg),Tmax ([1]; 1.5 g/kg),half-life ([1]; 1.5 g/kg),Molecule,further results
,19.6 ± 21.1 ng·h/mL,11.7 ± 9.6 ng·h/mL,9.8 ± 4.4 ng/mL,4.02 ± 4.96 h,1.33 ± 1.19 h,0.18 ± 0.03 h,0.83 ± 0.33 h,28.5 ± 20 ng·h/mL,26 ± 18.6 ng·h/mL,15.2 ± 3.08 ng/mL,2.72 ± 1.82 h,2.03 ± 1.43 h,0.2 ± 0.04 h,0.7 ± 0.35 h,"O=C(O)/C=C/c1ccc(O)c(O)c1 [Caffeic acid, caffeic acid]",Tmax [1]: < 1 h
not detected,,,,,,,,,,,,,,,"CC(C)(O)CC[C@@H](O)[C@](C)(O)[C@H]1CC[C@@]2(O)C3=CC(=O)[C@@H]4C[C@@H](O)[C@@H](O)C[C@]4(C)[C@H]3CC[C@]12C [Ecdysterone, ecdysterone]",
could be detected,0.15 ± 0.09 ng·h/mL,0.08 ± 0.05 ng·h/mL,0.11 ± 0.05 ng/mL,1.67 ± 1.53 h,0.56 ± 0.23 h,0.49 ± 0.33 h,2.96 ± 5.61 h,3.06 ± 3.07 ng·h/mL,1.47 ± 1.82 ng·h/mL,0.37 ± 0.32 ng/mL,25.9 ± 31.8 h,5.16 ± 3.68 h,0.38 ± 0.25 h,1.42 ± 0.69 h,"COc1ccc(-c2coc3cc(O)ccc3c2=O)cc1 [Formononetin, formononetin]",AUC(0-t) [1]: < 1 ng·h/mL; Cmax [1]: < 1 ng/mL; Tmax [1]: < 1 h
not detected,,,,,,,,,,,,,,,"OC[C@H]1O[C@@H](Oc2cc(O)cc(/C=C/c3ccc(O[C@@H]4O[C@H](CO)[C@@H](O)[C@H](O)[C@H]4O)cc3O)c2)[C@H](O)[C@@H](O)[C@@H]1O [Mulberroside A, mulberroside A]",
not detected,,,,,,,,,,,,,,,"C[C@@]12C[C@@]3(O)O[C@@H](O1)[C@]1(COC(=O)c4ccccc4)[C@H]3C[C@@]12O[C@@H]1O[C@H](CO)[C@@H](O)[C@H](O)[C@H]1O [Paeoniflorin, paeoniflorin]",
could be detected,27.7 ± 36.2 ng·h/mL,8.15 ± 4.85 ng·h/mL,1.61 ± 1.11 ng/mL,26.8 ± 31.5 h,5.48 ± 1.66 h,0.54 ± 0.29 h,11.4 ± 15.8 h,83 ± 81 ng·h/mL,35.4 ± 42.2 ng·h/mL,4.18 ± 3.34 ng/mL,27.2 ± 20.6 h,5.75 ± 3.36 h,3.17 ± 3.75 h,13.2 ± 10.4 h,"Cc1coc2c1C(=O)C(=O)c1c-2ccc2c1CCCC2(C)C [Tanshinone IIA, tanshinone IIA]",
